Literature values in patent US20210319872A1, “DRUG AND DEVICE COMBINATION PRODUCTS WITH IMPROVED SAFETY AND EFFICACY PROFILES” (priority 2016, published 2021).
Like-named read-outs stand apart in the source and are kept apart here.

[1] = refractory oropharyngeal candidiasis

In the case of `C[C@@H]1CCN(C(=O)CC#N)C[C@@H]1N(C)c1ncnc2[nH]ccc12` [Xeljanz (Jak Compounds)], the Decreased lymphocyte count (in vivo) is given as “Hematologic: Anemia, Decreased lymphocyte count (0.04%),”, the Headache (in vivo) is given as “Neurologic: Headache (3.4% to 4.3%)” and the “Increased HDL level” value (in vivo) is given as “Endocrine metabolic: Increased HDL level (10% to 12%), Raised”. For the same compound, the Infectious disease (in vivo) was “Immunologic: Infectious disease (20% to 22%), Opportunistic”, the Nasopharyngitis (in vivo) was “Respiratory: Nasopharyngitis (2.8% to 3.8%), Upper respiratory” and the Neutropenia (in vivo) was “Neutropenia (0.07%)”. For the same compound, the “Post-transplant lymphoproliferative disorder, Epstein Barr virus associated” value (in vivo) was “Barr virus associated (2.3%), Tuberculosis”, the “Raised low density lipoprotein cholesterol” value (in vivo) was “low density lipoprotein cholesterol (15% to 19%)” and the “Serious side effect, Dermatologic” value (in vivo) was “Dermatologic: Skin cancer, Non-melanoma”. For the same compound, the “Serious side effect, Gastrointestinal” value (in vivo) was “Gastrointestinal: Gastrointestinal perforation”, the “Serious side effect, Hematologic” value (in vivo) was “Hematologic: Anemia, Decreased lymphocyte count (0.04%),” and the “Serious side effect, Hepatic” value (in vivo) was “Hepatic: Injury of liver”. For the same compound, the “Serious side effect, Other” value (in vivo) was “Other: Cancer”, the Upper respiratory infection (in vivo) was “infection (3.8% to 4.5%)” and the “Urinary tract infectious disease” value (in vivo) was “Renal: Urinary tract infectious disease (2%)”.

For `CCCCCCCCc1ccc(CCC(N)(CO)CO)cc1` [Gilenya], the Increased liver enzymes (5 times ULN or greater (ALT, AST)) is listed as “times ULN or greater (ALT, AST), 4.5%)”, the Increased liver enzymes (All elevations (ALT/GGT/AST)) is listed as 15% and the Infectious disease (All infections) is listed as 72%. The Abdominal pain (in vivo) was 11%, the Atrioventricular block (in vivo) was “Cardiovascular: Atrioventricular block (up to 4.7%),” and the Backache (in vivo) was “Musculoskeletal: Backache (10%), Pain, In Extremity (10%)”. The Bradyarrhythmia (in vivo) was “Bradyarrhythmia (3%.)”, the Cough (in vivo) was 12% and the Diarrhea (in vivo) was 13%. For the same compound, the Headache (in vivo) was “Neurologic: Headache (25%)”, the Herpesvirus infection (in vivo) was “Immunologic: Cryptococcosis, Herpesvirus infection (9%),” and the Influenza (in vivo) was “Immunologic: Influenza (11%)”. For the same compound, the “Lymphocytopenia (Severe)” value (in vivo) was “Hematologic: Lymphocytopenia (Severe) (7%)”, the “Pain, In Extremity” value (in vivo) was “Musculoskeletal: Backache (10%), Pain, In Extremity (10%)” and the Sinusitis (in vivo) was 11%. For the same compound, the “Serious side effect, Dermatologic” value (listed without frequency) was “Dermatologic: Malignant melanoma”, the “Serious side effect, Immunologic” value (listed without frequency) was “Immunologic: Cryptococcosis, Herpesvirus infection (9%),” and the “Serious side effect, Neurologic” value (listed without frequency) was “Cryptococcal meningitis”. For the same compound, the Infectious disease (serious infections) was 2.3% and the Increased liver enzymes (up to 3 times ULN (ALT, AST)) was 14%.

For `CC[C@@H]([C@H](C)O)n1ncn(-c2ccc(N3CCN(c4ccc(OC[C@@H]5CO[C@@](Cn6cncn6)(c6ccc(F)cc6F)C5)cc4)CC3)cc2)c1=O` [Noxafil], the Cholestasis (frequency in words) is given as “Hepatic: Cholestasis (rare), Liver failure (rare)”, the Liver failure (frequency in words) is given as “Hepatic: Cholestasis (rare), Liver failure (rare)” and the Torsades de pointes (in vivo) is given as “pointes (less than 5%)”. The Diarrhea (oropharyngeal candidiasis) was “oropharyngeal candidiasis, 10%; refractory oropharyngeal”, the Fever (oropharyngeal candidiasis) was 6% and the Headache (oropharyngeal candidiasis) was 8%. The Nausea (oropharyngeal candidiasis) was “oropharyngeal candidiasis, 9%; refractory oropharyngeal”, the Vomiting (oropharyngeal candidiasis) was “oropharyngeal candidiasis, 7%; refractory oropharyngeal” and the Diarrhea [1] was 13%. The Fever [1] was 34%, the Headache [1] was 20% and the Nausea [1] was 29%. The Vomiting [1] was “candidiasis, 28%)”.

For `O=C1CN=C(c2ccccc2Cl)c2cc([N+](=O)[O-])ccc2N1` [Klonopin (clonazepam)], the Ataxia (in vivo) is given as “Neurologic: Ataxia (5% to 30%), Coordination problem (6%),”, the Coordination problem (in vivo) is given as “Neurologic: Ataxia (5% to 30%), Coordination problem (6%),” and the Depression (in vivo) is given as “Psychiatric: Depression (7%), Suicidal thoughts”. The Dizziness (in vivo) was “Dizziness (8%), Somnolence (37% to 50%)”, the Fatigue (in vivo) was “Other: Fatigue (7%)” and the Problem behavior (in vivo) was “Psychiatric: Problem behavior (25%)”. For the same compound, the “Serious side effect, Psychiatric” value (in vivo) was “Psychiatric: Depression (7%), Suicidal thoughts”, the “Serious side effect, Respiratory” value (in vivo) was “Respiratory: Respiratory depression” and the Somnolence (in vivo) was “Dizziness (8%), Somnolence (37% to 50%)”. The Upper respiratory infection (in vivo) was “Respiratory: Upper respiratory infection (8%)”.

For `CCOC(=O)C1=C(COCCN)NC(C)=C(C(=O)OC)C1c1ccccc1Cl` (stereo not drawn) [Amlodipine (Norvasc, Lotrel)], the Abdominal pain (in vivo) is given as “Gastrointestinal: Abdominal pain (1.6%), Nausea (2.9%.)”, the Dizziness (in vivo) is given as “Neurologic: Dizziness (Up to 3.4%), Headache (7.3%),” and the Fatigue (in vivo) is given as “Other: Fatigue (4.5%)”. For the same compound, the Flushing (in vivo) was “Cardiovascular: Flushing (0.7% to 2.6%), Palpitations (Up to”, the Headache (in vivo) was “Neurologic: Dizziness (Up to 3.4%), Headache (7.3%),” and the Nausea (in vivo) was “Gastrointestinal: Abdominal pain (1.6%), Nausea (2.9%.)”. For the same compound, the Palpitations (in vivo) was ≤ 4.5%), Peripheral edema (Up to 10.8%), the Peripheral edema (in vivo) was ≤ 4.5%), Peripheral edema (Up to 10.8%) and the Somnolence (in vivo) was “Somnolence (1.4%)”.

In the case of `COc1ccc2c3c1O[C@H]1C(=O)CC[C@H]4[C@@H](C2)N(C)CC[C@]314` [Hydrocodone, reference compound], the Abdominal pain (in vivo) is given as “Gastrointestinal: Abdominal pain (1% to less than 5%),”, the Constipation (in vivo) is given as “Constipation (3% to 11%), Nausea (7% to 10%), Vomiting (3% to” and the Difficulty swallowing (in vivo) is given as “Gastrointestinal: Difficulty swallowing (less than 1%)”. For the same compound, the Dizziness (in vivo) was “Neurologic: Dizziness (2% to 3%), Headache (2% to 4%),”, the Fatigue (in vivo) was “Other: Fatigue (1% to 4%)” and the Headache (in vivo) was “Neurologic: Dizziness (2% to 3%), Headache (2% to 4%),”. For the same compound, the Hypotension (in vivo) was “Cardiovascular: Hypotension (less than 1%), Orthostatic”, the Opioid withdrawal (in vivo) was “Opioid withdrawal (less than 1%)” and the Orthostatic hypotension (in vivo) was “hypotension (less than 1%), Prolonged QT interval, Syncope”. For the same compound, the Peripheral edema (in vivo) was “Cardiovascular: Peripheral edema (1% to less than 5%%)”, the Pruritus (in vivo) was “Dermatologic: Pruritus (0% to less than 5%)” and the “Serious side effect, Cardiovascular” value (in vivo) was “hypotension (less than 1%), Prolonged QT interval, Syncope”. The “Serious side effect, Neurologic” value (in vivo) was “Neurologic: Raised intracranial pressure, Seizure”, the “Serious side effect, Other” value (in vivo) was “Other: Drug withdrawal syndrome in neonate of dependent mother,” and the “Serious side effect, Respiratory” value (in vivo) was “Respiratory: Respiratory depression”. For the same compound, the Somnolence (in vivo) was “Somnolence (1% to 5%), Tremor (3%)”, the Spasm (in vivo) was “Musculoskeletal: Spasm (1% to less than 5%)” and the Tremor (in vivo) was “Somnolence (1% to 5%), Tremor (3%)”. The Upper respiratory infection (in vivo) was “Respiratory: Upper respiratory infection (1% to 3%)”, the “Urinary tract infectious disease” value (in vivo) was “Renal: Urinary tract infectious disease (1% to 5%)” and the Xerostomia (in vivo) was 6%), Xerostomia (1% to less than 5%).

In the case of `Cl.O=C1[C@@H]2[C@H]3CC[C@H](C3)[C@@H]2C(=O)N1C[C@@H]1CCCC[C@H]1CN1CCN(c2nsc3ccccc23)CC1` [Latuda], the Akathisia (in vivo) is listed as “Neurologic: Akathisia (5.6% to 22%), Extrapyramidal disease”, the Anxiety (in vivo) is listed as “Psychiatric: Anxiety (4% to 5%)” and the Cerebrovascular accident (in vivo) is listed as “Neurologic: Cerebrovascular accident (0.1% to 1%), Seizure (less”. For the same compound, the Diarrhea (in vivo) was “Gastrointestinal: Diarrhea (3% to 5%), Nausea (10% to 17%),”, the Nausea (in vivo) was “Gastrointestinal: Diarrhea (3% to 5%), Nausea (10% to 17%),” and the Orthostatic hypotension (in vivo) was “Cardiovascular: Orthostatic hypotension (0.3% to 2.1%), Syncope”. For the same compound, the “Serious side effect, Hematologic” value (in vivo) was “Hematologic: Agranulocytosis”, the “Serious side effect, Other” value (in vivo) was “Other: Neuroleptic malignant syndrome” and the Serum creatinine raised (in vivo) was “Renal: Serum creatinine raised (2% to 4%)”. For the same compound, the Suicidal thoughts (in vivo) was “Psychiatric: Suicidal thoughts (0.4% to 1.1%)”, the Syncope (in vivo) was “(0.1%)” and the Vomiting (in vivo) was “Vomiting (2% to 8%)”.

In the case of `NS(=O)(=O)c1cc(C2(O)NC(=O)c3ccccc32)ccc1Cl` (stereo not drawn) [Chlorthalidone (Hygroton)], the “Common side effect listed (incidence not given)” value (in vivo) is given as “Endocrine metabolic: Hyperuricemia”.

In the case of `CCCc1nc2c(C)cc(-c3nc4ccccc4n3C)cc2n1Cc1ccc(-c2ccccc2C(=O)O)cc1` [Telmisartan (Micardis))], the Cough (in vivo) is listed as “Respiratory: Cough (1.6% to 15.6%), Upper respiratory infection”, the “Serious side effects, listed without incidence or only as rare” value (in vivo) is listed as “Musculoskeletal: Rhabdomyolysis (rare)” and the Upper respiratory infection (in vivo) is listed as “(7%)”.

For `Cc1ccc(-c2nc3ccc(C)cn3c2CC(=O)N(C)C)cc1` [Ambien (zolpidem)], the Allergic reaction (in vivo) is listed as “Immunologic: Allergic reaction (4%)”, the Anaphylaxis (in vivo) is listed as “Immunologic: Anaphylaxis (rare)” and the Angioedema (in vivo) is listed as “Other: Angioedema (rare)”. For the same compound, the Chest pain (in vivo) was “Cardiovascular: Chest pain (1%), Tachycardia (0.1% to 1%)”, the Diarrhea (in vivo) was “Gastrointestinal: Diarrhea (1% to 3%), Nausea (1% to 7%)” and the Dizziness (in vivo) was “Neurologic: Dizziness (1% to 23.5%), Drugged state (3%),”. For the same compound, the Drugged state (in vivo) was “Neurologic: Dizziness (1% to 23.5%), Drugged state (3%),”, the Fatigue (in vivo) was “Other: Fatigue (0.1% to 3%)” and the Headache (in vivo) was “Headache (1% to 19%), Somnolence (2% to 15%)”. For the same compound, the Nausea (in vivo) was “Gastrointestinal: Diarrhea (1% to 3%), Nausea (1% to 7%)”, the “Serious side effect, Neurologic” value (in vivo) was “Neurologic: Hepatic encephalopathy” and the Somnolence (in vivo) was “Headache (1% to 19%), Somnolence (2% to 15%)”. For the same compound, the Tachycardia (in vivo) was “Cardiovascular: Chest pain (1%), Tachycardia (0.1% to 1%)” and the Visual disturbance (in vivo) was “Ophthalmic: Visual disturbance (3%)”.

For `N=C(N)NC(=O)c1nc(Cl)c(N)nc1N` [Amiloride (Midamor)], the Asthenia (in vivo) is listed as “Musculoskeletal: Asthenia (greater than 1% to less than 3%),”, the “Cardiac dysrhythmia (incidence)” value (in vivo) is listed as “Cardiovascular: Cardiac dysrhythmia (1% or less), Palpitations (1%” and the “Cough (incidence)” value (in vivo) is listed as “Respiratory: Cough (greater than 1% to less than 3%), Dyspnea”. For the same compound, the Cramp (in vivo) was “Cramp (greater than 1% to less than 3%)”, the Diarrhea (in vivo) was “Gastrointestinal: Diarrhea (3% to 8%), Loss of appetite (3% to 8%),” and the Dizziness (in vivo) was “Neurologic: Dizziness (greater than 1% to less than 3%), Headache”. For the same compound, the “Dyspnea (incidence)” value (in vivo) was “(greater than 1% to less than 3%)”, the “Encephalopathy (incidence)” value (in vivo) was “Neurologic: Encephalopathy (greater than 1% to less than 3%)” and the “Headache (incidence)” value (in vivo) was “(3% to 8%)”. For the same compound, the “Hyperkalemia (incidence)” value (in vivo) was “Endocrine metabolic: Hyperkalemia (10%)”, the Nausea (in vivo) was “Nausea (3% to 8%), Vomiting (3% to 8%)” and the “Palpitations (incidence)” value (in vivo) was “Cardiovascular: Cardiac dysrhythmia (1% or less), Palpitations (1%”. For the same compound, the “Raised intraocular pressure (incidence)” value (in vivo) was “Ophthalmic: Raised intraocular pressure (1% or less)”, the Rash (in vivo) was “Dermatologic: Rash (1% or less)” and the “Serious side effect listed (incidence not given)” value (in vivo) was “Hematologic: Aplastic anemia, Neutropenia”. The Vomiting (in vivo) was “Nausea (3% to 8%), Vomiting (3% to 8%)”.

In the case of `CNCCC=C1c2ccccc2CCc2ccccc21` [Nortriptyline (Pamelor)], the “Common side effects, listed without incidence” value (in vivo) is given as “Gastrointestinal: Constipation”.
